Assay results taken from US10738056B2 (Aduro BioTech, Inc., priority 2017, dated 2020).

These compounds were tested against Human cGAS amino acids 155-522 (Homo sapiens (Human), UniProt Q8N884) (assay: cGAS biochemical activity assay (ATP remaining, Kinase-Glo Max luminescence)). Conditions: human cGAS 155-522, ATP remaining (Kinase-Glo Max); read-out: cGAS IC50.
Human cGAS amino acids 155-522, sequence (Q8N884 157-522): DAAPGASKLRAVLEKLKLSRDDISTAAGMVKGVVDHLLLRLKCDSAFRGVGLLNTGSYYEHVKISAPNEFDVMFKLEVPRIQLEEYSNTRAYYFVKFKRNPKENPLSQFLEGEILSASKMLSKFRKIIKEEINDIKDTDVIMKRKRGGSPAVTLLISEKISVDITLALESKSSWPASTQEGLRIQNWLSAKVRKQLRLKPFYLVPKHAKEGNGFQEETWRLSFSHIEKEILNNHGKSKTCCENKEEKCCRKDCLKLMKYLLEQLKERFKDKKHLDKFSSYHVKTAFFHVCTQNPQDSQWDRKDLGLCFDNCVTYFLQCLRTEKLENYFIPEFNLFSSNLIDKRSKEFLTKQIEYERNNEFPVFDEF

COc1cccc2oc(-c3c(C)[nH]c4c(-c5ccccc5)c(N)nn4c3=O)nc12 [Compound C1063, 2-amino-6-(4-methoxybenzo[d]oxazol-2-yl)-5-methyl-3-phenylpyrazolo[1,5-a]pyrimidin-7(4H)-one] and COc1cccc2oc(-c3c(C)[nH]c4c(-c5ccccc5)c(C(=O)O)nn4c3=O)nc12 [Compound C1043, 6-(4-methoxybenzo[d]oxazol-2-yl)-5-methyl-7-oxo-3-phenyl-4,7-dihydropyrazolo[1,5-a]pyrimidine-2-carboxylic acid] cannot be ordered by IC50: greater than 250 µM for the first, greater than 250 µM for the second.

COc1cc(NC(=O)c2c(C)[nH]c3c(-c4ccccc4)c(C(F)(F)F)nn3c2=O)ccn1 [Compound A1087, N-(2-methoxypyridin-4-yl)-5-methyl-7-oxo-3-phenyl-2-(trifluoromethyl)-4,7-dihydropyrazolo[1,5-a]pyrimidine-6-carboxamide] and Cc1[nH]c2c(-c3ccccc3)c(C(F)(F)F)nn2c(=O)c1C(=O)Nc1ccncc1 [Compound A1047, 5-methyl-7-oxo-3-phenyl-N-(pyridin-4-yl)-2-(trifluoromethyl)-4,7-dihydropyrazolo[1,5-a]pyrimidine-6-carboxamide] fall in the same range of IC50: 20 to 250 µM for the first, 20 to 250 µM for the second.

Cc1[nH]c2c(-c3ccccc3)c(C(F)(F)F)nn2c(=O)c1-c1cccc(Cl)c1 [Compound C1004, 6-(3-chlorophenyl)-5-methyl-3-phenyl-2-(trifluoromethyl)pyrazolo[1,5-a]pyrimidin-7(4H)-one] and Cc1nnc(-c2c(C)[nH]c3c(-c4ccccc4)c(C(F)(F)F)nn3c2=O)o1 [Compound D1001, 5-methyl-6-(5-methyl-1,3,4-oxadiazol-2-yl)-3-phenyl-2-(trifluoromethyl)pyrazolo[1,5-a]pyrimidin-7(4H)-one] fall in the same range of IC50: 20 to 250 µM for the first, 20 to 250 µM for the second.

Cc1[nH]c2c(-c3ccccc3)c(C(F)(F)F)nn2c(=O)c1C(=O)Nc1ccccc1N(C)C [Compound A1053, N-(2-(dimethylamino)phenyl)-5-methyl-7-oxo-3-phenyl-2-(trifluoromethyl)-4,7-dihydropyrazolo[1,5-a]pyrimidine-6-carboxamide] and Cc1[nH]c2c(-c3ccccc3)c(C(F)(F)F)nn2c(=O)c1C(=O)Nc1ccccc1OC(C)C [Compound A1060, N-(2-isopropoxyphenyl)-5-methyl-7-oxo-3-phenyl-2-(trifluoromethyl)-4,7-dihydropyrazolo[1,5-a]pyrimidine-6-carboxamide] fall in the same range of IC50: 20 to 250 µM for the first, 20 to 250 µM for the second.

Compared with Cc1[nH]c2c(-c3ccccc3)c(C(F)(F)F)nn2c(=O)c1-c1n[nH]c(=O)o1 [Compound C1247, 5-(5-methyl-7-oxo-3-phenyl-2-(trifluoromethyl)-4,7-dihydropyrazolo[1,5-a]pyrimidin-6-yl)-1,3,4-oxadiazol-2(3H)-one], Cc1nnc(Cc2c(C)[nH]c3c(-c4ccccc4)c(C(F)(F)F)nn3c2=O)o1 [Compound D1032, 5-methyl-6-((5-methyl-1,3,4-oxadiazol-2-yl)methyl)-3-phenyl-2-(trifluoromethyl)pyrazolo[1,5-a]pyrimidin-7(4H)-one] is higher in IC50: less than 20 µM for the first, 20 to 250 µM for the second.

COc1cccc2oc(-c3c(C(=O)N[C@@H](C)CO)[nH]c4c(-c5ccccc5)c(C(F)(F)F)nn4c3=O)nc12 [Compound C1196, (S)-N-(1-hydroxypropan-2-yl)-6-(4-methoxybenzo[d]oxazol-2-yl)-7-oxo-3-phenyl-2-(trifluoromethyl)-4,7-dihydropyrazolo[1,5-a]pyrimidine-5-carboxamide] and COc1cccc2oc(-c3c(C4CCC(C(=O)O)C4)[nH]c4c(-c5ccccc5)c(C(F)(F)F)nn4c3=O)nc12 (centres unmarked) [Compound C1239, 3-(6-(4-methoxybenzo[d]oxazol-2-yl)-7-oxo-3-phenyl-2-(trifluoromethyl)-4,7-dihydropyrazolo[1,5-a]pyrimidin-5-yl)cyclopentane-1-carboxylic acid] cannot be ordered by IC50: less than 20 µM for the first, less than 20 µM for the second.

COc1nccnc1NC(=O)c1c(C)[nH]c2c(-c3ccccc3)c(C(F)(F)F)nn2c1=O [Compound A1097, N-(3-methoxypyrazin-2-yl)-5-methyl-7-oxo-3-phenyl-2-(trifluoromethyl)-4,7-dihydropyrazolo[1,5-a]pyrimidine-6-carboxamide] and COc1ncccc1NC(=O)c1c(C)[nH]c2c(-c3ccccc3)c(C(F)(F)F)nn2c1=O [Compound A1093, N-(2-methoxypyridin-3-yl)-5-methyl-7-oxo-3-phenyl-2-(trifluoromethyl)-4,7-dihydropyrazolo[1,5-a]pyrimidine-6-carboxamide] fall in the same range of IC50: 20 to 250 µM for the first, 20 to 250 µM for the second.

First: Cc1[nH]c2c(-c3ccccc3)c(C(F)(F)F)nn2c(=O)c1CC(=O)Nc1ccccc1 [Compound B1005]
Second: Cc1[nH]c2c(-c3ccccc3)c(C(F)(F)F)nn2c(=O)c1CC(=O)N1CCN(c2ccccc2)CC1 [Compound B1007, 5-methyl-6-(2-oxo-2-(4-phenylpiperazin-1-yl)ethyl)-3-phenyl-2-(trifluoromethyl)pyrazolo[1,5-a]pyrimidin-7(4H)-one]
The IC50 of the first is lower: 20 to 250 µM for the first, greater than 250 µM for the second.

First: COc1cc(F)cc(NC(=O)c2c(C)[nH]c3c(-c4ccccc4)c(C(F)(F)F)nn3c2=O)c1 [Compound A1133, N-(3-fluoro-5-methoxyphenyl)-5-methyl-7-oxo-3-phenyl-2-(trifluoromethyl)-4,7-dihydropyrazolo[1,5-a]pyrimidine-6-carboxamide]
Second: COc1ccc(NC(=O)c2c(C)[nH]c3c(-c4ccccc4)c(C(F)(F)F)nn3c2=O)cc1 [Compound A1001, N-(4-methoxyphenyl)-5-methyl-7-oxo-3-phenyl-2-(trifluoromethyl)-4,7-dihydropyrazolo[1,5-a]pyrimidine-6-carboxamide]
The IC50 of the first is lower: less than 20 µM for the first, 20 to 250 µM for the second. The first is the more potent here.

COc1cccc(-c2c(C(F)(F)F)nn3c(=O)c(-c4nc5c(OC)cccc5o4)c(C)[nH]c23)c1 [Compound C1120, 6-(4-methoxybenzo[d]oxazol-2-yl)-3-(3-methoxyphenyl)-5-methyl-2-(trifluoromethyl)pyrazolo[1,5-a]pyrimidin-7(4H)-one] and COc1ccncc1NC(=O)c1c(C)[nH]c2c(-c3ccccc3)c(C(F)(F)F)nn2c1=O [Compound A1103, N-(4-methoxypyridin-3-yl)-5-methyl-7-oxo-3-phenyl-2-(trifluoromethyl)-4,7-dihydropyrazolo[1,5-a]pyrimidine-6-carboxamide] fall in the same range of IC50: 20 to 250 µM for the first, 20 to 250 µM for the second.

First: Cc1[nH]c2c(-c3ccccc3)c(C(F)(F)F)nn2c(=O)c1C(=O)Nc1cccc(NS(C)(=O)=O)c1 [Compound A1045, 5-methyl-N-(3-(methylsulfonamido)phenyl)-7-oxo-3-phenyl-2-(trifluoromethyl)-4,7-dihydropyrazolo[1,5-a]pyrimidine-6-carboxamide]
Second: Cc1[nH]c2c(-c3ccccc3)c(C(F)(F)F)nn2c(=O)c1C(=O)Nc1cccnc1 [Compound A1005, 5-methyl-7-oxo-3-phenyl-N-(pyridin-3-yl)-2-(trifluoromethyl)-4,7-dihydropyrazolo[1,5-a]pyrimidine-6-carboxamide]
The IC50 of the first is lower: less than 20 µM for the first, 20 to 250 µM for the second. The first is the more potent here.

COc1ccnc(NC(=O)c2c(C)[nH]c3c(-c4ccccc4)c(C)nn3c2=O)c1 [Compound A1105, N-(4-methoxypyridin-2-yl)-2,5-dimethyl-7-oxo-3-phenyl-4,7-dihydropyrazolo[1,5-a]pyrimidine-6-carboxamide] and Cc1[nH]c2c(-c3ccccc3)c(C(F)(F)F)nn2c(=O)c1C(=O)Nc1nn(C)cc1C#N [Compound A1090, N-(4-cyano-1-methyl-1H-pyrazol-3-yl)-5-methyl-7-oxo-3-phenyl-2-(trifluoromethyl)-4,7-dihydropyrazolo[1,5-a]pyrimidine-6-carboxamide] cannot be ordered by IC50: less than 20 µM for the first, less than 20 µM for the second.

Cc1[nH]c2c(-c3ccccc3)c(C(F)(F)F)nn2c(=O)c1C(=O)Nc1[nH]nc(C(F)(F)F)c1C(C)C [Compound A1058, N-(4-isopropyl-3-(trifluoromethyl)-1H-pyrazol-5-yl)-5-methyl-7-oxo-3-phenyl-2-(trifluoromethyl)-4,7-dihydropyrazolo[1,5-a]pyrimidine-6-carboxamide] and CC(=O)Nc1ccccc1NC(=O)c1c(C)[nH]c2c(-c3ccccc3)c(C(F)(F)F)nn2c1=O [Compound A1021, N-(2-acetamidophenyl)-5-methyl-7-oxo-3-phenyl-2-(trifluoromethyl)-4,7-dihydropyrazolo[1,5-a]pyrimidine-6-carboxamide] fall in the same range of IC50: 20 to 250 µM for the first, 20 to 250 µM for the second.

Cc1[nH]c2c(-c3ccccc3)c(C(F)(F)F)nn2c(=O)c1-c1nnc(C2CCN(S(C)(=O)=O)CC2)o1 [Compound D1053, 5-methyl-6-(5-(1-(methylsulfonyl)piperidin-4-yl)-1,3,4-oxadiazol-2-yl)-3-phenyl-2-(trifluoromethyl)pyrazolo[1,5-a]pyrimidin-7(4H)-one] and Cc1[nH]c2c(-c3ccccc3)c(C(F)(F)F)nn2c(=O)c1C(=O)NC1CCN(C)CC1 [Compound A1026, 5-methyl-N-(1-methylpiperidin-4-yl)-7-oxo-3-phenyl-2-(trifluoromethyl)-4,7-dihydropyrazolo[1,5-a]pyrimidine-6-carboxamide] fall in the same range of IC50: 20 to 250 µM for the first, 20 to 250 µM for the second.

Cc1[nH]c2c(C3CC3)c(C(F)(F)F)nn2c(=O)c1-c1ccccc1 [Compound C1265, 3-cyclopropyl-5-methyl-6-phenyl-2-(trifluoromethyl)pyrazolo[1,5-a]pyrimidin-7(4H)-one] and Cc1[nH]c2c(-c3ccccc3)c(C(F)(F)F)nn2c(=O)c1C(=O)N1CCCC1 [Compound A1009, 5-methyl-3-phenyl-6-(pyrrolidine-1-carbonyl)-2-(trifluoromethyl)pyrazolo[1,5-a]pyrimidin-7(4H)-one] cannot be ordered by IC50: greater than 250 µM for the first, greater than 250 µM for the second.

Compared with Cc1[nH]c2c(C(C)C)c(C(F)(F)F)nn2c(=O)c1Cc1ccccc1 [Compound C1268, 6-benzyl-3-isopropyl-5-methyl-2-(trifluoromethyl)pyrazolo[1,5-a]pyrimidin-7(4H)-one], CC(=O)N1CCC(NC(=O)c2c(C)[nH]c3c(-c4ccccc4)c(C(F)(F)F)nn3c2=O)CC1 [Compound A1027, N-(1-acetylpiperidin-4-yl)-5-methyl-7-oxo-3-phenyl-2-(trifluoromethyl)-4,7-dihydropyrazolo[1,5-a]pyrimidine-6-carboxamide] is lower in IC50: greater than 250 µM for the first, 20 to 250 µM for the second. The second is the more potent here.
